According to patent US9220682B2, “Nanocarrier therapy for treating invasive tumors” (Emory University, priority 2009, dated 2015):
“Also recorded” adds a separate entry of the source.

How the values were obtained:
[1] = system: RT2 rat astrocytoma cell line; assay: Boyden chamber invasion assay at 48 hours; type: cell-based; conditions: RT2 cells, 0.01-5 μg/ml
Protocol: FIG. 1b is a bar graph showing the dose dependent effects of IB on invasion using a Boyden Chamber Assay. […] At concentrations above 20 μg/ml, IB was cytotoxic to cancer, and not just anti-invasive.
(§1) An aggressive rat astrocytoma cell line, RT2, was maintained in vitro. This cell line was used to test 24 compounds at varying concentrations in cytotoxicity and proliferation assays using CCK8 (Dojindo), a tetrazolium salt based assay. Compounds without detrimental effects on viability and growth were tested using the Boyden chamber invasion assay at 48 hours. Compounds were also tested for viability against astrocyte cultures using CCK8. Of these compounds, several were identified as anti-invasive. However, several compounds were toxic to astrocytes in culture and several were cytotoxic and not in fact anti-invasive.
It also is benign to astrocyte co-culture making it safer for delivery to the brain (FIG. 3a). The compound is blue in color with an absorbance at 610 nm making it easily assayable. […] At concentrations above 20 μg/ml, IB was cytotoxic to cancer and not just anti-invasive.

[2] = system: RT2 rat astrocytoma cell line; assay: Cytotoxicity and proliferation assays using CCK8; type: cell-based
Protocol: (§2) FIG. 1a is a bar graph showing the effects of IB on cell growth in vitro, in terms of normalized cell viability.
as §1

astrocytes = assay: Viability against astrocyte cultures using CCK8; type: cell-based; conditions: CCK8, 5 μg/ml
Protocol: as §2, §1

glioma cells = assay: Invasion assay at 24 hours, encapsulated versus free drug; type: cell-based
Protocol: FIG. 4 is a chart showing the results of an invasion assay at 24 hours, showing invasion (%) over time (24 hours).
An invasion assay was performed at 24 hours. The encapsulated formulation was compared to tree drug in vitro and was still active as an anti-invasive agent. Encapsulation of the compound in liposomes is reproducible and consistent between batched.

[3] = Pharmacokinetics of free versus liposomal IB (Example 3); type: in vivo; conditions: rat, tail vein, 20 mg/kg, Cremaphor formulation
Protocol: FIG. 5 is a chart showing the pharmacokinetics of free versus encapsulated imipramine blue, in terms of plasma concentration (mg/ml) over time (hours).
Animals were injected via tail vein with 20 mg/kg liposomal or free IB. Orbital blood draws were performed at intervals and blood collected, centrifuged, and serum read at 610 nm absorbance for pharmacokinetics. […] For biodistribution, animals were perfused with saline, organs collected, homogenized, and drug extracted with DMSO and read at 610 nm absorbance.
The circulation time of the free imipramine blue was tested in a Cremaphor formulation similar to that of paclitaxel.

[4] = Plasma clearance of free IB versus Nano-IB (Example 6); type: in vivo, rat; conditions: non tumor-bearing adult male rats, tail vein, readings over 1 hour
Protocol: Imipramine Blue liposomes were injected via the tail vein into adult male rats (non tumor-bearing). Blood samples were taken via the orbital cavity at different time points after drug administration, plasma separated and analyzed for IB content via absorbance readings on spectrophotometer.

RT2 glioma cells = assay: Actin staining of IB-treated glioma cells; type: cell-based, rat; conditions: 24 hours, versus ethanol
Protocol: FIGS. 9A and 9B are photomicrographs showing the results of in vitro treatment of RT2 glioma cells with IB. Cells were treated with ethanol […] or IB […] and stained for actin (red) and nuclei (blue).
The ability of IB to impact invasion capability of glioma cells was tested further in vitro. Cells were treated for 24 hours with either IB dissolved in ethanol or an equivalent volume of ethanol.

HIF2a = conditions: WM35 PKB cells, 5 micromolar, 24 hours; cited from earlier work

Structure (SMILES): CCN(CC)c1ccc(C(c2ccc(N(CC)CC)cc2)=c2ccc3c(c2)CCc2ccccc2[N+]=3CCCN(C)C)cc1 [IB, Imipramine Blue]
- anti-invasive effect [1]: highest anti-invasive properties; also recorded: dose-dependent anti-invasive response
- concentration at which IB is cytotoxic to cancer [2]: above 20 μg/ml
- proliferation of RT2 cells ([2]; CCK8): not antiproliferative; also recorded: not particularly cytotoxic or anti-proliferative
- cytotoxicity to RT2 cells ([2]; CCK8, at anti-invasive concentrations): not particularly cytotoxic
- effect on astrocyte culture (astrocytes): benign
- invasion relative to control (100 percent) (glioma cells): around 60%
- half-life of free IB [3]: 11 min
- half-life of free IB ([3]; listed as free imipramine blue): around 11 minutes
- half-life of free IB [4]: 12 min
- effect on cytoskeleton (RT2 glioma cells): alters the arrangement of the cytoskeleton
- inhibition of HIF2a expression (HIF2a): around 90%
